# Measured values published in patent US20220348868A1, “METHOD OF PRODUCING SKIN-DERIVED PRECURSOR CELLS” (KAO CORPORATION, priority 2014, published 2022).
# Test system: human iPS cell-derived neural crest stem cells
# Test: Induction of differentiation from human iPS cell-derived neural crest stem cells to SKPs, observed by microphotograph
# Format: cell-based
# Settings: CHIR99021 added at 0.5 micromolar to 5 micromolars (tested 0, 0.1, 0.5, 3, 5 micromolar)
# Procedure: Based on the method described in Nature protocols, 5, pp. 688-701 (2010) or Cell reports, 3, pp. 1140-1152 (2013), the iPS cells subjected to the passage culture in Test Example 1 were cultured in a culture medium prepared by adding noggin (catalog number: 6057-NG-100/CF, 500 ng/mL, manufactured by R&D Systems, Inc.) and/or SB431542 (catalog number: 1614, 10 micromolars, manufactured by TOCRIS Bioscience) to a hES medium (−) bFGF for 5 days to 2 weeks to induce differentiation from human iPS cells to neural crest stem cells. The above-described iPS cell-derived neural crest stem cells were cultured in a D-MEM/F12 medium (catalog number: 10565-018, manufactured by Life Technologies Corporation) containing B-27 supplement (catalog number: 17504-044, 2% by mass, manufactured by life Technologies Corporation), EGF (catalog number: 336-EG-200, 20 ng/mL, manufactured by R&D Systems, Inc.), bFGF (catalog number: 064-04541, 40 ng/mL, manufactured by Wako Pure Chemical Industries, Ltd.), penicillin/streptomycin (catalog number: 15140-122, 50U, 50 microgram/mL, manufactured by Life Technologies Corporation) and 0 micromolar to 5 micromolars of CHIR99021 (catalog number 13122, manufactured by Cayman Chemical Company). […]
compound,measurement,setting,value
Cc1c[nH]c(-c2cnc(NCCNc3ccc(C#N)cn3)nc2-c2ccc(Cl)cc2Cl)n1 [CHIR99021],"amount of cells differentiated to SKPs, after passage culture (P1)","after selective passage culture of SKPs, FIG. 2, P1",a larger amount of the cells differentiated to SKPs grew
same,"amount of cells differentiated to SKPs, before passage culture (P0)","culture 3 to 5 days, FIG. 2, P0",a larger amount of the cells differentiated to SKPs was migrated in a peripheral area of the colony
